Here are results for five compounds from patent US9889081B2, “Aldehyde dehydrogenase inhibitors as novel depigmenting agents” (The Regents of the University of California, priority 2008, dated 2018).

In data set [1] the test system is primary human melanocytes. The note with it: Hall and Orlow 2005; cited from earlier work.
Data set [2] has as its system tyrosinase. Briefly: Bafilomycin rescue of tyrosinase accumulation after siRNA depletion, immunoblot. Format: cell-based, human. The note with it: MNT-1 cells, 25 nM bafilomycin. The method, then:
FIG. 2A-G. Novel, pharmaceutically-tractable melanogenesis gene networks converge on tyrosinase expression. a, 4 days post transfection with the indicated siRNAs, MNT-1 whole cell lysates were prepared and analyzed by immunoblot for the indicated proteins. A non-targeting siRNA was used as a transfection control (Control). ERK1/2 is shown as a loading control. b, Those siRNAs that inhibited tryosinase accumulation were examined for consequences on Tyrosinase and MITF gene expression by quantitative rt-PCR. c, The indicated siRNAs, targeting novel pigmentation genes identified in the MNT-1 screen, were tested for consequences on tyrosinase protein accumulation in darkly pigmented primary human melanocyte cultures 6 days post transfection as in a. d, The indicated siRNAs, targeting novel pigmentation genes identified in the MNT-1 screen, were tested for consequences on tyrosinase protein accumulation in moderately pigmented primary human melanocyte cultures 6 days post transfection as in a. e, Pharmacological inhibition of Aldh activity impacts tyrosinase protein accumulation. MNT-1 cells (left panel) and primary melanomcyte cultures (right panels) were exposed to 5 uM Aldh inhibitors (cyanamide or Angeli's salt) or the tyrosinase inhibitor hydroxyquinone(Kim and Uyama 2005) for 72 hours as indicated. 24 hours post treatment, cultures were exposed to UV-B at the doses indicated. Tyrosinase and ERK1/2 levels were assessed by immunoblot. […] Subsequently, cells were lysed in Cell Titer Glo and the luminescence and absorbance values were used to calculate inhibition of pigmentation as in FIG. 1a. g, MNT-1 cells transfected with the indicated siRNAs as in a were incubated in the presence and absence of bafilomycin A2 for 24 hours prior to lyses and analyses of tyrosinase protein accumulation. […]
(§1) 1×10^4 MNT-1 cells were plated in a 96 well microtiter plate. […] Cells were incubated for an additional 7 days, with one media change on day 4, prior to collection of absorbance and viability values. […]

The next data set has as its system melanoma cells. The following applies: cited from earlier work.
In the next data set the test system is MNT-1 cells. As to the kind of experiment: Drug treatment, pigmentation in MNT-1 cells. The following applies: doses equivalent to those required for inhibition of Aldh activity in culture. Format: cell-based, human. An excerpt:
For further analyses, we focused on those novel pigmentation genes that impacted tyrosinase expression in all three genetic backgrounds. Among these were two isoforms of aldehyde dehydrogenase, Aldh1 and Aldh9, well characterized enzymes that regulate ethanol detoxification (Edenberg 2007). A number of chemical inhibitors of these enzymes have been identified (DeMaster et al. 1998), and several of these agents are clinically utilized to induce alcohol intolerance during detoxification interventions; presenting an opportunity for pharmacological validation of the contribution of Aldh activity to melanocyte pigmentation.
1×10^4 MNT-1 cells were plated in a 96 well microtiter plate. 24 hours after plating, cells were incubated with either vehicle, hydroquinone Angeli's salt, or cyanamide. 48 hours after drug treatment, cell lysates were prepared and subjected to immunoblotting with a tyrosinase and ERK antibody. Similar protocols were utilized in primary melanocytes. Melanocytes were plated in 96 well microtiter plate in the presence of drug or vehicle. 24 hours after drug treatment, melanocytes were treated with UV. Cell lysates were prepared 24 hours after UV treatment and subjected to immunoblotting. […] Cells were incubated for an additional 7 days, with one media change on day 4, prior to collection of absorbance and viability values. […]

For data set [3], the system named is tyrosinase. Briefly: Drug treatment, tyrosinase immunoblot in MNT-1 cells. The data set is classed as cell-based, human. The following applies: 5 uM, doses equivalent to those required for inhibition of Aldh activity in culture. As for the experimental part:
(§2) FIG. 2A-G. Novel, pharmaceutically-tractable melanogenesis gene networks converge on tyrosinase expression. a, 4 days post transfection with the indicated siRNAs, MNT-1 whole cell lysates were prepared and analyzed by immunoblot for the indicated proteins. A non-targeting siRNA was used as a transfection control (Control). ERK1/2 is shown as a loading control. b, Those siRNAs that inhibited tryosinase accumulation were examined for consequences on Tyrosinase and MITF gene expression by quantitative rt-PCR. c, The indicated siRNAs, targeting novel pigmentation genes identified in the MNT-1 screen, were tested for consequences on tyrosinase protein accumulation in darkly pigmented primary human melanocyte cultures 6 days post transfection as in a. d, The indicated siRNAs, targeting novel pigmentation genes identified in the MNT-1 screen, were tested for consequences on tyrosinase protein accumulation in moderately pigmented primary human melanocyte cultures 6 days post transfection as in a. e, Pharmacological inhibition of Aldh activity impacts tyrosinase protein accumulation. […] Tyrosinase and ERK1/2 levels were assessed by immunoblot. […]
as §1

Data set [4] relates to tyrosinase. Briefly: UV-induced tyrosinase expression in primary melanocytes, immunoblot. The data set is classed as cell-based, human. The note with it: cyanamide 100 uM, UV-B 24 hours post treatment. The method, then:
as §2, §1

Data set [5] concerns primary human melanocytes. Briefly: Pigment production in darkly pigmented primary human melanocytes, 7 days with drug. Format: cell-based. The following applies: seven days. The method, then: as §2, §1
[6] abbreviates: 24 hour inhibition of lysosome acidification.

With `NC(=S)Nc1ccccc1` [PTU, phenylthiourea], the “in vitro pigment inhibition” value in data set [1] is reported as “most potent currently known in vitro pigment inhibitor”.
Regarding `CO/C1=C\C(C)=C\[C@@H](C)[C@@H](O)[C@@H](C)C/C(C)=C/C=C/[C@H](OC)[C@@H]([C@@H](C)[C@@H](O)[C@H](C)[C@@]2(O)C[C@@H](O)[C@H](C)[C@@H](C(C)C)O2)OC1=O` [bafilomycin, bafilomycin A], the “tyrosinase accumulation upon depletion of Msra” value in the data set on tyrosinase [2] is “did not restore tyrosinase accumulation”. Besides, in the data set with tyrosinase [2] (setting [6]), the “tyrosinase accumulation upon depletion of Rab4a” value was “rescued tyrosinase accumulation” and the “tyrosinase accumulation upon depletion of Zdhhc9” value was “rescued tyrosinase accumulation”.
Take `CCN(CC)C(=S)SSC(=S)N(CC)CC` [Disulfiram]: in the data set with melanoma cells, the toxicity result was “toxic to melanoma cells”.
With `N#CN` [cyanamide], in the data set with MNT-1 cells, the pigmentation result is “inhibited pigmentation”. Also, in the data set on tyrosinase [3], the tyrosinase protein accumulation result is recorded as “inhibited”. In addition, in the data set on tyrosinase [4], the UV-induced tyrosinase expression result was “impaired UV-induced tyrosinase expression”. Besides, the melanogenesis entry in data set [5] is reported as “impair melanogenesis”. The toxicity entry with melanoma cells is on record as “non-toxic”.
For `[Na+].[Na+].[O-][N+]([O-])=NO` [Angeli's salt], the pigmentation result in the data set on MNT-1 cells is reported as “inhibited pigmentation”. The tyrosinase protein accumulation result with tyrosinase [3] is “inhibited”. Further, the UV-induced tyrosinase expression result in the data set with tyrosinase [4] was “impaired UV-induced tyrosinase expression”. Further, the toxicity entry in the data set on melanoma cells is listed as “non-toxic”.
